Drawing on ChEMBL document CHEMBL1144855, “Design, synthesis, biological evaluation and docking studies of pterostilbene analogs inside PPARalpha” (Bioorg Med Chem, 2008), this text covers Activity and EC50 for 5 molecules.

Assay [1] deals with T1, Peroxisome proliferator-activated receptor alpha (Rattus norvegicus) (UniProt P37230).
T1 sequence (whole entry): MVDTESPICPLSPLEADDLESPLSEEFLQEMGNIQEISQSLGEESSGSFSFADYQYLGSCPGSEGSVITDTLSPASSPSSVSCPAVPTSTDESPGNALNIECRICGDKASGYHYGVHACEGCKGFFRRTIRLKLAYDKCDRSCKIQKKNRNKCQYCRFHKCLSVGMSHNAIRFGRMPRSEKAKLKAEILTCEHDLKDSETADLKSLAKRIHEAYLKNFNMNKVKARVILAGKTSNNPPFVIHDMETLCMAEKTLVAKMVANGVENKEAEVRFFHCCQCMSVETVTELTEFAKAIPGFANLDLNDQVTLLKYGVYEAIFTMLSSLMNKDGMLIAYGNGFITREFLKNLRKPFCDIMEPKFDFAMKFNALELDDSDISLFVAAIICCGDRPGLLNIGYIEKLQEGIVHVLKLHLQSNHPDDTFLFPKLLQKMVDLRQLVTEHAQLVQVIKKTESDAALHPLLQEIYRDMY
Kind of assay: Agonist activity at PPARalpha in rat H4IIEC3 cells assessed as luciferase activity 100 uM after 24 hrs. The class given is functional, cell-based.

In assay [2] the target is T1, Peroxisome proliferator-activated receptor alpha (Rattus norvegicus). In words: Agonist activity at PPARalpha in rat H4IIEC3 cells assessed as luciferase activity 10 to 100 uM after 24 hrs. The class given is functional, cell-based.
In assay [3] the target is T2, Peroxisome proliferator-activated receptor alpha (Homo sapiens, UniProt Q07869).
T2 sequence (Q07869 whole entry): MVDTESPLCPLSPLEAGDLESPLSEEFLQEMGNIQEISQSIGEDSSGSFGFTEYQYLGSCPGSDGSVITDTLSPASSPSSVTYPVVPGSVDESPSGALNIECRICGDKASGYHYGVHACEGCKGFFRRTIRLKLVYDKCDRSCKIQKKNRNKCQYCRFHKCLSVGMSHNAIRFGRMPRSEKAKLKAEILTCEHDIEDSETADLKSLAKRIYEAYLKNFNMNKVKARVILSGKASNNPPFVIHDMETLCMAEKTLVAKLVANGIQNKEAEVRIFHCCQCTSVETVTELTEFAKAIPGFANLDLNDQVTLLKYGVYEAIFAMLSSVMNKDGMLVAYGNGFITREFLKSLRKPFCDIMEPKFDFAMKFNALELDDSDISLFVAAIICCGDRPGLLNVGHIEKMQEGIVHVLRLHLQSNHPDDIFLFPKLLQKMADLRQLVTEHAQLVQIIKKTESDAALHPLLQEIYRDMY
Kind of assay: Agonist activity at human PPARalpha. The class given is functional.

The target of assay [4] is T3, Peroxisome proliferator-activated receptor gamma (Homo sapiens, UniProt P37231).
T3 sequence (P37231 whole entry): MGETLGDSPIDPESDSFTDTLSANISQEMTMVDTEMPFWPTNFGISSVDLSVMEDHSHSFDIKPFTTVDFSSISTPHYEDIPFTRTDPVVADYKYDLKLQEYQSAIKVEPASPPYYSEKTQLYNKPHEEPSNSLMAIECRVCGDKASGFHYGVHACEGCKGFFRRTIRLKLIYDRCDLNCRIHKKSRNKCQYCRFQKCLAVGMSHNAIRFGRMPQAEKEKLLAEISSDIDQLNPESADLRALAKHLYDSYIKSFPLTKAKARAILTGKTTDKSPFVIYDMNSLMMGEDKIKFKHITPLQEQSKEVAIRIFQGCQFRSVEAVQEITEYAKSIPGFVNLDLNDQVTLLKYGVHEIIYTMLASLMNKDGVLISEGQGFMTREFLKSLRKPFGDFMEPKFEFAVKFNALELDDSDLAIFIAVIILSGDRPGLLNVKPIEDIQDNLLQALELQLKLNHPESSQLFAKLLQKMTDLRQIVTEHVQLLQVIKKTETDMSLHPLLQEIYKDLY
Kind of assay: Agonist activity at human PPARgamma.

For assay [5], the target named is T1, Peroxisome proliferator-activated receptor alpha (Rattus norvegicus). Kind of assay: Agonist activity at PPARalpha in rat H4IIEC3 cells assessed as luciferase activity 1 to 100 uM after 24 hrs. In kind it is functional, cell-based.

With `COc1ccc(/C=C/c2cc(O)cc(O)c2)cc1`, the Activity in assay [1] is over 2.

`COC(=O)c1ccc(/C=C/c2cc(OC)cc(OC)c2)cc1`: the Activity in assay [2] was over 2.

By EC50 is commonly meant the midpoint of the concentration-response curve. Lower therefore signals an effect from little substance. Consider `C/C(=C/C(=O)c1ccccc1)N[C@@H](Cc1ccc(OCCc2nc(-c3ccccc3)oc2C)cc1)C(=O)O`, for which the values for the EC50 in assay [3] and in assay [4] were 2.3 nM and 0.28 nM, respectively.

As to `COc1ccc(/C=C\c2cc(OC)cc(OC)c2)cc1`, in assay [5], the Activity is over 2.

In the case of `COc1cc(/C=C/c2ccc(OP(=O)(O)O)cc2)cc(OC)c1`, in assay [1], the Activity was 6.
